{
  "source": "patent US8901314B2",
  "about": "“Substituted pyrazoles as N-type calcium channel blockers” (Janssen Pharmaceutica NV, priority 2012, dated 2014)",
  "key": {"[1]": {"test_system": "Cav2.2 (N-type calcium channel; α1B, α2δ and β3 subunits stably expressed in HEK293 cells)", "assay": "Automated electrophysiology assay (QPatch-HT patch clamp)", "type": "cell-based", "settings": "0.1 μM; for QPatch % Inhibition, High Freq: high frequency stimulation (15th pulse of 5 Hz train); for QPatch % Inhibition, Low Freq: low frequency stimulation (1st pulse of train)", "outline": "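Whole-cell automated patch clamp of HEK293 cells stably expressing α1B, α2δ-1 and β3, with 10 mM Ba²⁺/TEA external solution and CsCl internal solution. From −80 mV, trains of 15 pulses to +20 mV at 5 Hz every 30 s. Pulse 1 and pulse 15 currents normalized to the no-compound control period, with CdCl2 used to zero the current.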"}, "[2]": {"target": "α1B (Cav2.2), β3 and α2δ subunits of the N-type calcium channel (stable HEK cell line) (Rattus norvegicus, UniProt Q02294)", "assay": "Calcium-dye indicator assay (FDSS, KCl depolarization)", "type": "cell-based", "settings": "calcium mobilization response to 50 mM KCl; six-point concentration-response", "outline": "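HEK cells stably co-expressing α1B, β3 and α2δ subunits, loaded with calcium dye, exposed to compound for 5 min before 50 mM KCl depolarization, 3 min further read on FDSS. Maximal fluorescence normalized to KCl maximum and buffer minimum; IC50 by sigmoidal nonlinear regression.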"}},
  "data": [
    {"smiles": "COc1ccccc1-n1nc(C2CC(C)(C)OC(C)(C)C2)cc1-c1cc(C)cs1", "note": "[Compound 18, 1-(2-Methoxyphenyl)-5-(4-methylthiophen-2-yl)-3-(2,2,6,6-tetramethyltetrahydro-2H-pyran-4-yl)-1H-pyrazole]", "values": [
      {"measurement": "QPatch % Inhibition, High Freq", "setting": "[1]", "value": 16, "unit": "%"},
      {"measurement": "QPatch % Inhibition, Low Freq", "setting": "[1]", "value": "−23", "unit": "%"},
      {"measurement": "IC50", "setting": "[2]", "value": 5.3, "unit": "nM"}
    ]},
    {"smiles": "CCOc1ccc(-c2cc(C3CC(C)(C)OC(C)(C)C3)nn2-c2ccccc2OC)cc1", "note": "[Compound 9, 5-(4-Ethoxyphenyl)-1-(2-methoxyphenyl)-3-(2,2,6,6-tetramethyltetrahydro-2H-pyran-4-yl)-1H-pyrazole]", "values": [
      {"measurement": "QPatch % Inhibition, High Freq", "setting": "[1]", "value": 47.5, "unit": "%"},
      {"measurement": "QPatch % Inhibition, Low Freq", "setting": "[1]", "value": 34, "unit": "%"},
      {"measurement": "IC50", "setting": "[2]", "value": 2.3, "unit": "nM"}
    ]},
    {"smiles": "CC1(C)CC(c2cc(-c3ccc(Cl)cc3)n(-c3ccccc3N)n2)CC(C)(C)O1", "note": "[Compound 68, 2-[5-(4-Chlorophenyl)-3-(2,2,6,6-tetramethyltetrahydro-2H-pyran-4-yl)-1H-pyrazol-1-yl]aniline]", "values": [
      {"measurement": "QPatch % Inhibition, High Freq", "setting": "[1]", "value": 14, "unit": "%"},
      {"measurement": "QPatch % Inhibition, Low Freq", "setting": "[1]", "value": "−9", "unit": "%"},
      {"measurement": "IC50", "setting": "[2]", "value": 20, "unit": "nM"}
    ]}
  ]
}
